Measured values reported in patent US6890948B1 (Cancer Research Technology Limited, priority 2000, dated 2005).
Read-outs that look alike come from different tables or passages of the source. Marks after values point to notes of the source that are not given here.

Tests used:
[1] = tested on: Human bladder carcinoma T24 cells; assay: GDEPT: clonogenic survival of cells transiently transfected with the HRP gene versus untransfected cells; type: cell-based; conditions: for IC50: Homo sapiens, T-24, 24 h; for factor: ratio of IC50 for transfected and untransfected cells
Method: (§1) Human bladder carcinoma T24 cells, MCF-7 mammary carcinoma cells (both from European Collection of Cell Cultures, Salisbury, UK), FaDu, nasopharyngeal squamous carcinoma cells (American Type Culture Collection, Manassas, Va.) were maintained in Dulbecco's modified Eagle's medium (DMEM) supplemented with 10% foetal calf serum, 2 mM L-glutamine, 100 U/ml penicillin, 100 µg/ml streptomycin, and incubated in a humidified incubator at 37° C. and 5% CO2/air. Only cells which tested negative for mycoplasma infection were utilised.
(§2) Following drug exposure, cells were rinsed with PBS and grown for 8 to 20 days in complete DMEM supplemented with feeder cells (V79 cells exposed to 250 Gy ^60Co irradiation). After fixation and staining with 2.5% crystal violet w/v in methylated spirit, colonies of >50 cells were scored. Surviving fractions were evaluated relative to HBSS-treated controls.

[2] = tested on: MCF-7 mammary carcinoma cells; assay: as above; type: cell-based, human; conditions: for IC50: Homo sapiens; for factor: MCF-7, ratio of IC50 for transfected and untransfected cells
Method: as §1, §2

[3] = tested on: FaDu, nasopharyngeal squamous carcinoma cells; assay: as above; type: cell-based, human; conditions: for IC50: Homo sapiens; for factor: ratio of IC50 for transfected and untransfected cells
Method: as §1, §2

[4] = tested on: Hamster lung fibroblast V79 cells; assay: Cytotoxic effects of compounds of formula (I) with horseradish peroxidase (HRP), clonogenic cell survival; type: cell-based; conditions: 2 hours treatment, mean ± standard error of three experiments unless n given
Method: Hamster lung fibroblast V79 cells were obtained from the European Tissue Culture Collection. Cells were grown over the weekend in […] tissue culture flats as attached cells in Eagle's Modified Essential Medium (EMEM) supplemented with 10% foetal calf serum, 2 mM L-glutamine, 100 U/mL penicillin and 100 μg/mL streptomycin, and incubated in a humidified incubator at 37° C., in 5% CO2/air. […] The trypsin was deactivated by the addition of 10 mL spinner modified EMEM (supplemented with 7.5% foetal calf serum) and the cells allowed to grow in a spinning culture, pre-gassed with 5% CO2/air, maintaining the cells in logarithmic growth.
Cells were prepared for toxicity measurements by counting and plating 200, 2000 or 20,000 cells/6 cm Petri dish in 3 mL EMEM in triplicate for each sample. The cells were allowed to attach for at least 1 hour, then the medium removed and 2 mL phenol red free Hanks' balanced salt solution added, either alone (control) or with 50 or 100 μM of the compound of formula (I) to be tested. HRP (50 μL of 0.048 mg/mL) was added to the test dishes requiring it and the cells left in the incubator for 0, 0.5, 1, 1.5 or 2 hours. After the incubation time the drug was removed, the cells washed with 2 mL Hanks and then 4 mL EMEM added. The cells were allowed to grow for 7 days to colonies of >50 cells. After 7 days the medium was removed and the cells fixed with 75% methanol for 5 minutes. The methanol was then removed and the cells stained with 1% w/v crystal violet for 5 minutes. The cells were washed and colonies counted. Cell survival was determined by calculating the ratio of colonies growing compared to untreated control cells.
In table 1, values are the surviving fraction after 2 hours treatment with the IAA derivatives at the concentrations shown together with HRP (1.2 μg/mL). Unless otherwise indicated (by n=number of individual experiments), the means±the standard errors of three experiments are given.

[5] = Distribution of 5-fluoro-indole acetic acid in vivo in mice with the Carcinoma NT tumour; conditions: 50 mg/kg i.p., female CBA mice bearing Carcinoma NT tumour, up to 2 hours
Method: 5-fluoro-indole acetic acid (5 mg/mL) in 2% v/v ethanol/water was adjusted to pH 7.4 with NaOH and injected i.p. at a dose of 50 mg/kg into female CBA mice bearing the Carcinoma NT tumour (see example 8 for details). The mice were sacrificed up to 2 hours after drug administration and the blood and tissues removed immediately and placed on ice. The whole blood was spun down and the plasma stored at −20° C. Tissue sample were weighed and homogenised in 4 to 9 volumes of ice-cold water. The homogenised tissue was then stored at −20° C.
For HPLC analysis, plasma (50 μL) was mixed with IAA internal standard (130 μM, 25 μL) and protein precipitated with acetonitrile (50 μL). The samples were spun down and the supernatant injected directly for HPLC analysis. For tissue levels, samples (250 μL) was mixed with IAA internal standard (130 μM, 25 μL) and precipitated with acetonitrile (250 μL) for direct injection for HPLC analysis. HPLC analysis was carried out with a Hypersil SODS 125×4.6 mm column eluting with A; 75% acetonitrile and B: 20 mM ammonium acetate (pH 5.1) with a gradient of 15-70% A in 10 minutes at 2 mL/minute. Detection was at 290 nm using a Waters 486 variable wavelength detector.

[6] = 100 μM IAA derivative together with HRP (1.2 μg/mL), 0^a = all cells killed, 1^b = no detectable effect
[7] = 50 μM IAA derivative together with HRP (1.2 μg/mL)

O=C(O)Cc1c[nH]c2ccc(Br)cc12 [Compound 5-bromo, 5-bromo-indole-3-acetic acid]
IC50 ([1]; read-out: IC50 HRP+, T24 (anoxic), transfected cells, 24 hours exposure in anaerobic cabinet): 7 µM
IC50 ([1]; read-out: IC50 HRP+, T24 (normoxic), transfected cells, 24 hours exposure, estimated from survival curves): 6 µM
IC50 ([1]; read-out: IC50 HRP−, T24 (anoxic), untransfected cells, 24 hours exposure in anaerobic cabinet): 1000 µM
IC50 ([1]; read-out: IC50 HRP−, T24 (normoxic), untransfected cells, 24 hours exposure): 600 µM
factor ([1]; T24 (anoxic)): 43
factor ([1]; T24 (normoxic)): 100
IC50 ([2]; MCF7, 24 h, read-out: IC50 HRP+): 7 µM
IC50 ([2]; MCF7, 24 h, read-out: IC50 HRP−): 500 µM
factor [2]: 71
IC50 ([3]; 24 h, read-out: IC50 HRP+): 7 µM
IC50 ([3]; 24 h, read-out: IC50 HRP−): 600 µM
factor [3]: 86
surviving fraction [4, 6]: 0.00004 ± 0.00003

O=C(O)Cc1c[nH]c2ccc(F)cc12 [Compound 5-fluoro, 5-fluoro-indole-3-acetic acid]
concentration in the tumour [5]: sufficient concentrations to achieve a cytotoxic effect are attained in the tumour
levels in the kidney [5]: High levels in the kidney
IC50 ([1]; T24 (anoxic), transfected cells, 24 hours exposure in anaerobic cabinet, read-out: IC50 HRP+): 30 µM
IC50 ([1]; T24 (anoxic), untransfected cells, 24 hours exposure in anaerobic cabinet, read-out: IC50 HRP−): 2300 µM
IC50 ([1]; T24 (normoxic), transfected cells, 24 hours exposure, estimated from survival curves, read-out: IC50 HRP+): 40 µM
IC50 ([1]; T24 (normoxic), untransfected cells, 24 hours exposure, read-out: IC50 HRP−): 3500 µM
factor ([1]; T24 (anoxic)): 77
factor ([1]; T24 (normoxic)): 88
IC50 ([2]; MCF7, MCF-7, transfected cells, 24 hours exposure, read-out: IC50 HRP+): 250 µM
IC50 ([2]; MCF7, MCF-7, untransfected cells, 24 hours exposure, read-out: IC50 HRP−): 400 µM
factor [2]: 1.6
IC50 ([3]; transfected cells, 24 hours exposure, read-out: IC50 HRP+): 20 µM
IC50 ([3]; untransfected cells, 24 hours exposure, read-out: IC50 HRP−): 1200 µM
factor [3]: 60
surviving fraction [4, 7]: 0.0045 ± 0.003
surviving fraction [4, 6]: 0^a

O=C(O)Cc1c[nH]c2c(F)cccc12 [SR022, 7-Fluoroindole-3-acetic acid]
melting point: 159 to 161 °C
surviving fraction [4, 7]: 0.053 ± 0.022
surviving fraction [4, 6]: 0^a

O=C(O)Cc1c[nH]c2ccc(Cl)cc12 [SR024, 5-Chloroindole-3-acetic acid]
melting point: 160 to 161 °C
surviving fraction [4, 6]: 0.0027 ± 0.0022

Cc1[nH]c2ccc(F)cc2c1CC(=O)O [SR036, 5-Fluoro-2-methylindole-3-acetic acid]
melting point: 182 to 184 °C

O=C(O)Cc1c[nH]c2cccc(F)c12 [SR039, 4-Fluoroindole-3-acetic acid]
melting point: 129 to 131 °C
surviving fraction [4, 6]: 0.000085 ± 0.00007

O=C(O)Cc1c[nH]c2cc(F)ccc12 [SR043, 6-Fluoroindole-3-acetic acid]
melting point: 161 to 163 °C
surviving fraction [4, 6]: 0.00995 (n = 2)

O=C(O)Cc1c[nH]c2c(Cl)cccc12 [SR052, 7-Chloroindole-3-acetic acid]
melting point: 164 to 165 °C
surviving fraction [4, 6]: 0.000042 (n = 1)

O=C(O)Cc1c[nH]c2cc(Cl)ccc12 [SR058, 6-Chloroindole-3-acetic acid]
melting point: 183 to 185 °C
surviving fraction [4, 7]: 0.00085 (n = 1)
surviving fraction [4, 6]: 0^a

O=C(O)Cc1c[nH]c2cc(Br)ccc12 [SR069, 6-Bromoindole-3-acetic acid]
melting point: 174 to 176 °C
surviving fraction [4, 7]: 0.0031 ± 0.0023
surviving fraction [4, 6]: 0^a

O=C(O)Cc1c[nH]c2ccc(OC(F)(F)F)cc12 [SR073, 5-Trifluoromethoxyindole-3-acetic acid]
melting point: 120 to 122 °C

O=C(O)Cc1c[nH]c2cc(Cl)cc(Cl)c12 [SR085, 4,6-Dichloroindole-3-acetic acid]
melting point: 223 to 224 °C

O=C(O)Cc1c[nH]c2c(F)cc(Cl)cc12 [SR091, 5-Chloro-7-fluoroindole-3-acetic acid]
melting point: 164 to 166 °C

Cc1cc(F)c2[nH]cc(CC(=O)O)c2c1 [SR109, 7-Fluoro-5-methylindole-3-acetic acid]
melting point: 138 to 140 °C

Cn1cc(CC(=O)O)c2ccc(Cl)cc21 [SR139, 6-Chloro-1-methylindole-3-acetic acid]
melting point: 130 to 132 °C (dec.)

Cc1ccc(F)c2[nH]cc(CC(=O)O)c12 [SR148, 7-Fluoro-4-methylindole-3-acetic acid]
melting point: 162 to 164 °C (dec.)

O=C(O)Cc1c[nH]c2ccc(-c3ccc(Cl)cc3)cc12 [SR150, 5-(4-Chlorophenyl)indole-3-acetic acid]
melting point: 166 to 168 °C
